Data: ChEMBL document CHEMBL3877294, “Discovery of Ruzasvir (MK-8408): A Potent, Pan-Genotype HCV NS5A Inhibitor with Optimized Activity against Common Resistance-Associated Polymorphisms” (J Med Chem, 2017)

What was measured:
[1] = system: Hepatitis C virus subtype 1a; assay: Selectivity ratio for EC90 for HCV genotype-1a NS5A Y93H mutant to EC90 for HCV genotype-1a NS5A
Huh-7 [2] = assay: Inhibition of HCV genotype-2b NS5A harboring methionine at position 31 infected in human HuH7 cells by luciferase reporter gene assay; format: cell-based; settings: Hepatitis C virus subtype 2b
[3] = Selectivity ratio for EC90 for HCV genotype-2b NS5A harboring methionine at position 31 to EC90 for HCV genotype-1a NS5A
Huh-7 [4] = assay: Inhibition of HCV genotype-1a NS5A infected in human HuH7 cells by luciferase reporter gene assay; format: cell-based; settings: Hepatitis C virus subtype 1a
[5] = system: T1, Nonstructural protein 5A (Hepatitis C virus), Q5L478 [Y93H]; assay: Inhibition of HCV genotype-1a NS5A Y93H mutant infected in human HuH7 cells by luciferase reporter gene assay; format: cell-based; settings: Hepatitis C virus subtype 1a; Huh-7
T1 sequence (whole entry): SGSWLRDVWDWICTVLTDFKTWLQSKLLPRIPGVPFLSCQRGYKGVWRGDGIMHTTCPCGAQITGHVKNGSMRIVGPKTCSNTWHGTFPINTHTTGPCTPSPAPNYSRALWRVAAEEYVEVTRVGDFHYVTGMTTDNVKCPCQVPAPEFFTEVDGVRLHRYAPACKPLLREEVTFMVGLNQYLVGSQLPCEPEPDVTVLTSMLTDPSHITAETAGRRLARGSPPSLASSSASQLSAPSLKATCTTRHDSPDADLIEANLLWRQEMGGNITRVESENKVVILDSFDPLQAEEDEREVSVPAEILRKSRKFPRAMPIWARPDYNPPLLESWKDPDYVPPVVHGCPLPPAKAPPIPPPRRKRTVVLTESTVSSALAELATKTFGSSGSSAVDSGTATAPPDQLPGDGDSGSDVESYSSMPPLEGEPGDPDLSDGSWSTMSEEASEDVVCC

Huh-7 [6] = assay: Inhibition of HCV genotype-3a NS5A infected in human HuH7 cells by luciferase reporter gene assay; format: cell-based; settings: Hepatitis C virus subtype 3a
[7] = system: Nonstructural protein 5A (Hepatitis C virus), Q5L478 [UNDEFINED MUTATION]; assay: Inhibition of HCV genotype-1a NS5A L31V mutant infected in human HuH7 cells by luciferase reporter gene assay; format: cell-based; settings: Hepatitis C virus subtype 1a; Huh-7
Huh-7 [8] = assay: Inhibition of HCV genotype-4a NS5A infected in human HuH7 cells by luciferase reporter gene assay; format: cell-based; settings: Hepatitis C virus subtype 4a

Structure (SMILES)	Selectivity ratio [1]	EC90 (Huh-7 [2]) [nM]	Selectivity ratio [3]	EC90 (Huh-7 [4]) [nM]	EC90 [5] [nM]	EC90 (Huh-7 [6]) [nM]	EC90 [7] [nM]	EC90 (Huh-7 [8]) [nM]
CCOc1cccc([C@@H]2Oc3cc(-c4cnc([C@@H]5CCCN5C(=O)[C@@H](NC(=O)OC)C(C)C)[nH]4)cc(F)c3-c3cc4cc(-c5cnc([C@@H]6CCCN6C(=O)[C@@H](NC(=O)OC)C(C)C)[nH]5)ccc4n32)c1	200	8	800	0.01	2	–	–	–
CCOc1cccc([C@@H]2Oc3cc(-c4cnc([C@@H]5CCCN5C(=O)[C@@H](NC(=O)OC)C(C)C)[nH]4)ccc3-c3cc4cc(-c5cnc([C@@H]6CCCN6C(=O)[C@@H](NC(=O)OC)C(C)C)[nH]5)ccc4n32)c1	800	22	1100	0.02	16	–	–	–
COC(=O)N[C@H](C(=O)N1CCC[C@H]1c1ncc(-c2ccc3c(c2)OC(c2ccc(C4CC4)s2)n2c-3cc3cc(-c4cnc([C@@H]5CCCN5C(=O)[C@@H](NC(=O)OC)C(C)C)[nH]4)ccc32)[nH]1)C(C)C (some centres not stated)	400	0.35	117	0.003	1.2	–	–	–
COC(=O)N[C@H](C(=O)N1CCC[C@H]1c1ncc(-c2cc(F)c3c(c2)OC(c2cc4c(s2)CCCC4)n2c-3cc3cc(-c4cnc([C@@H]5CCCN5C(=O)[C@@H](NC(=O)OC)C(C)C)[nH]4)ccc32)[nH]1)C(C)C (some centres not stated)	–	0.61	–	0.005	0.31	0.02	0.027	0.008
COC(=O)N[C@H](C(=O)N1CCC[C@H]1c1ncc(-c2cc(F)c3c(c2)OC(c2cnc(C4(C)CC4)s2)n2c-3cc3cc(-c4cnc([C@@H]5CCCN5C(=O)[C@@H](NC(=O)OC)C(C)C)[nH]4)ccc32)[nH]1)C(C)C (some centres not stated)	–	0.68	–	0.017	0.38	0.046	0.065	0.027
COC(=O)N[C@H](C(=O)N1CCC[C@H]1c1ncc(-c2cc(F)c3c(c2)OC(c2cc4c(s2)CCC4)n2c-3cc3cc(-c4cnc([C@@H]5CCCN5C(=O)[C@@H](NC(=O)OC)C(C)C)[nH]4)ccc32)[nH]1)C(C)C (some centres not stated)	–	0.24	–	0.003	0.26	0.007	0.003	0.005
COC(=O)N[C@H](C(=O)N1CCC[C@H]1c1ncc(-c2cc(F)c3c(c2)OC(c2cnc(CC(F)(F)F)s2)n2c-3cc3cc(-c4cnc([C@@H]5CCCN5C(=O)[C@@H](NC(=O)OC)C(C)C)[nH]4)ccc32)[nH]1)C(C)C (some centres not stated)	–	0.22	–	0.005	0.18	0.015	0.05	0.013
COC(=O)N[C@H](C(=O)N1CCC[C@H]1c1ncc(-c2cc(F)c3c(c2)OC(c2sccc2C2CC2)n2c-3cc3cc(-c4cnc([C@@H]5CCCN5C(=O)[C@@H](NC(=O)OC)C(C)C)[nH]4)ccc32)[nH]1)C(C)C (some centres not stated)	–	> 33	–	0.012	70	4.7	1.74	0.32
COCc1ccc(C2Oc3cc(-c4cnc([C@@H]5CCCN5C(=O)[C@@H](NC(=O)OC)C(C)C)[nH]4)cc(F)c3-c3cc4cc(-c5cnc([C@@H]6CCCN6C(=O)[C@@H](NC(=O)OC)C(C)C)[nH]5)ccc4n32)s1 (some centres not stated)	–	0.54	–	0.005	0.22	0.016	0.049	0.009
COC(=O)N[C@H](C(=O)N1CCC[C@H]1c1ncc(-c2cc(F)c3c(c2)OC(c2nc4ccccc4o2)n2c-3cc3cc(-c4cnc([C@@H]5CCCN5C(=O)[C@@H](NC(=O)OC)C(C)C)[nH]4)ccc32)[nH]1)C(C)C (some centres not stated)	–	1	–	0.004	0.32	0.025	0.042	0.008
COC(=O)N[C@H](C(=O)N1CCC[C@H]1c1ncc(-c2cc(F)c3c(c2)OC(c2cnc(C(F)F)s2)n2c-3cc3cc(-c4cnc([C@@H]5CCCN5C(=O)[C@@H](NC(=O)OC)C(C)C)[nH]4)ccc32)[nH]1)C(C)C (some centres not stated)	–	0.069	–	0.002	0.056	0.004	0.003	0.002
COC(=O)N[C@H](C(=O)N1CCC[C@H]1c1ncc(-c2cc(F)c3c(c2)OC(c2sc(C(C)C)nc2C)n2c-3cc3cc(-c4cnc([C@@H]5CCCN5C(=O)[C@@H](NC(=O)OC)C(C)C)[nH]4)ccc32)[nH]1)C(C)C (some centres not stated)	–	> 1.7	–	0.004	12.5	0.034	0.36	0.009
COC(=O)N[C@H](C(=O)N1CCC[C@H]1c1ncc(-c2cc(F)c3c(c2)OC(c2cnc(OC)s2)n2c-3cc3cc(-c4cnc([C@@H]5CCCN5C(=O)[C@@H](NC(=O)OC)C(C)C)[nH]4)ccc32)[nH]1)C(C)C (some centres not stated)	–	0.068	–	0.002	0.035	0.007	0.015	0.004
COC(=O)N[C@H](C(=O)N1CCC[C@H]1c1ncc(-c2cc(F)c3c(c2)OC(c2ccc(C4CC4(F)F)s2)n2c-3cc3cc(-c4cnc([C@@H]5CCCN5C(=O)[C@@H](NC(=O)OC)C(C)C)[nH]4)ccc32)[nH]1)C(C)C (some centres not stated)	–	0.43	–	0.002	0.084	0.007	0.02	0.003
COC(=O)N[C@H](C(=O)N1CCC[C@H]1c1ncc(-c2cc(F)c3c(c2)OC(c2ccc(C(F)F)s2)n2c-3cc3cc(-c4cnc([C@@H]5CCCN5C(=O)[C@@H](NC(=O)OC)C(C)C)[nH]4)ccc32)[nH]1)C(C)C (some centres not stated)	–	0.26	–	0.002	0.14	0.007	0.016	0.005
COC(=O)N[C@H](C(=O)N1CCC[C@H]1c1ncc(-c2cc(F)c3c(c2)OC(c2cnns2)n2c-3cc3cc(-c4cnc([C@@H]5CCCN5C(=O)[C@@H](NC(=O)OC)C(C)C)[nH]4)ccc32)[nH]1)C(C)C (some centres not stated)	–	0.72	–	0.003	0.36	0.047	0.14	0.012
COC(=O)N[C@H](C(=O)N1CCC[C@H]1c1ncc(-c2cc(F)c3c(c2)OC(c2cc4c(s2)CCC4)n2c-3cc3cc(-c4cnc([C@@H]5C[C@H]6C[C@H]6N5C(=O)[C@@H](NC(=O)OC)C(C)C)[nH]4)ccc32)[nH]1)C(C)C (some centres not stated)	–	0.67	–	0.006	0.2	0.012	0.015	0.005
COC(=O)N[C@H](C(=O)N1CCC[C@H]1c1ncc(-c2cc(F)c3c(c2)OC(c2ccc(C(C)C)s2)n2c-3cc3cc(-c4cnc([C@@H]5CCCN5C(=O)[C@@H](NC(=O)OC)C(C)C)[nH]4)ccc32)[nH]1)C(C)C (some centres not stated)	–	0.52	–	0.002	0.13	0.001	0.01	0.003
COC(=O)N[C@H](C(=O)N1CCC[C@H]1c1ncc(-c2cc(F)c3c(c2)OC(c2ccc(CC(F)(F)F)s2)n2c-3cc3cc(-c4cnc([C@@H]5CCCN5C(=O)[C@@H](NC(=O)OC)C(C)C)[nH]4)ccc32)[nH]1)C(C)C (some centres not stated)	–	0.65	–	0.001	0.1	0.007	0.022	0.004
COC(=O)N[C@H](C(=O)N1CCC[C@H]1c1ncc(-c2cc(F)c3c(c2)OC(c2ccc(C#N)s2)n2c-3cc3cc(-c4cnc([C@@H]5CCCN5C(=O)[C@@H](NC(=O)OC)C(C)C)[nH]4)ccc32)[nH]1)C(C)C (some centres not stated)	–	3.4	–	< 0.002	2.38	0.013	0.087	0.004
